# Measured values published in patent US3931262A, “Hydrophilic and difficultly volatile biocidal triorganotin compounds” (priority 1972, dated 1976).
# Experiments:
# [1] = in water / neutral medium / strongly acid or alkaline pH
# [2] = test system: Salmonella cholerae-suis VBIB; format: cell-based
# [3] = test system: Paecilomyces varioti CBS; assay: Microbiological test; format: cell-based
# Source text: (§1) In the test for microbiocidal activity the compounds listed hereinbelow yielded the values indicated in the following Table: No. Compound __________________________________________________________________________ 1 (n--C4 H9)3 Sn--S--CH2 --CH2 --COO.(CH 2 --CH2 --O--n H(n~9) 2 (C6 H5)3 Sn--S--(CH2)3 --SO3.Na CH3 .vertline. 3 --Sn--S--CH2 --CH2 --COO--(CH2 --CH2 --O)n.H(n ~9) .vertline. CH3 4 (n--C4 H9)3 Sn--S--CH2 --COO.H.N(CH2 CH2 OH)3 5 (n--C4 H9)3 Sn--S--(CH2)2 --COO.H.N(CH2 CH2 OH)3 6 (n--C4 H9)3 Sn--S--CH2 --CO.N(CH2 CH2 OH)2 __________________________________________________________________________
# [4] = test system: Penicillium expansum SMC 36; assay: Microbiological test; format: cell-based
# Source text: as §1
# [5] = test system: Streptococcus agalactiae M100; assay: Microbiological test; format: cell-based
# Source text: as §1
# [6] = test system: Hefe rot DAP; assay: Microbiological test; format: cell-based
# Source text: as §1
# [7] = test system: Sarcina ureae SMB 81; assay: Microbiological test; format: cell-based
# Source text: as §1
# [8] = test system: Alternaria tenuis CBS 10426; assay: Microbiological test; format: cell-based
# Source text: as §1
# [9] = test system: Poria vaporia CBS; assay: Microbiological test; format: cell-based
# Source text: as §1
# [10] = test system: Salmonella pullorum VBIZ; assay: Microbiological test; format: cell-based
# Source text: as §1
# [11] = test system: Escherichia coli NCTC 8195; assay: Microbiological test; format: cell-based
# Source text: as §1
# [12] = test system: Mycobacterium phlei CITM 61; assay: Microbiological test; format: cell-based
# Source text: as §1
# [13] = test system: Aspergillus niger ATCC 6275; assay: Microbiological test; format: cell-based
# Source text: as §1
# [14] = test system: Streptococcus faecalis NCTC 8619; assay: Microbiological test; format: cell-based
# Source text: as §1
# [15] = test system: Pilz schwarzlich DAP; assay: Microbiological test; format: cell-based
# Source text: as §1
# [16] = test system: Corynebacterium diphteroides FUR; assay: Microbiological test; format: cell-based
# Source text: as §1
# [17] = test system: Fusarium spec. DAP; assay: Microbiological test; format: cell-based
# Source text: as §1
# [18] = test system: Pseudomonas fluorescens NCTC 4755; assay: Microbiological test; format: cell-based
# Source text: as §1
# [19] = test system: Candida albicans CBS; assay: Microbiological test; format: cell-based
# Source text: as §1
# [20] = test system: Penicillium funiculosum CEB 329631; assay: Microbiological test; format: cell-based
# Source text: as §1
# [21] = test system: Hefe DAP; assay: Microbiological test; format: cell-based
# Source text: as §1
# [22] = test system: Fusarium oxysporum CBS; assay: Microbiological test; format: cell-based
# Source text: as §1
# [23] = test system: Bacillus subtilis NCTC 6460; assay: Microbiological test; format: cell-based
# Source text: as §1
# [24] = test system: Coniphora cerebella CBS; assay: Microbiological test; format: cell-based
# Source text: as §1
# [25] = test system: Pullularia pullulans CBS 10767; assay: Microbiological test; format: cell-based
# Source text: as §1
# [26] = test system: Trichoderma viride CEB 3334.2; assay: Microbiological test; format: cell-based
# Source text: as §1
# [27] = test system: Chaetomium globosum CBS 14851; assay: Microbiological test; format: cell-based
# Source text: as §1
# [28] = test system: Salmonella gallinarum VBIB; assay: Microbiological test; format: cell-based
# Source text: as §1
# [29] = test system: Trichophyton gypseum CBS; assay: Microbiological test; format: cell-based
# Source text: as §1
# [30] = test system: Arizona paracolon 7:1.7,8; assay: Microbiological test; format: cell-based
# Source text: as §1
# [31] = test system: Staphylococcus aureus SG 511; assay: Microbiological test; format: cell-based
# Source text: as §1
# [32] = test system: Polystictus versicolor EMPA61; assay: Microbiological test; format: cell-based
# Source text: as §1
# [33] = test system: Staphylococcus aureus SG 511 M6; assay: Microbiological test; format: cell-based
# Source text: as §1
# [34] = test system: Stachybotrys atra CBS 32465; assay: Microbiological test; format: cell-based
# Source text: as §1
# [35] = test system: Aspergillus flavus CBS 12662; assay: Microbiological test; format: cell-based
# Source text: as §1
# [36] = test system: Escherichia coli RP 45410; assay: Microbiological test; format: cell-based
# Source text: as §1
# [37] = test system: Pasteurella multocida K753; assay: Microbiological test; format: cell-based
# Source text: as §1
# [38] = test system: Lenzites abietina CBS; assay: Microbiological test; format: cell-based
# Source text: as §1
smiles,measurement,setting,value
CCC[CH2][Sn]([CH2]CCC)([CH2]CCC)[O]S(N)(=O)=O [tributyltin sulphaminate],stability to hydrolysis (in words),[1],hydrolytically split off in water at once
"O=S(=O)([O-])CCC[S][Sn]([c]1ccccc1)([c]1ccccc1)[c]1ccccc1.[Na+] [Compound 2, sodium S-triphenyl tin-γ-mercaptopropanesulphonate]",Activity range,[2],> 300 ppm
same,Activity range,[3],10 ppm
same,Activity range,[4],30 ppm
same,Activity range,[5],3 ppm
same,Activity range,[6],10 ppm
same,Activity range,[7],3 ppm
same,Activity range,[8],10 ppm
same,Activity range,[9],3 ppm
same,Activity range,[10],> 300 ppm
same,Activity range,[11],30 ppm
same,Activity range,[12],3 ppm
same,Activity range,[13],30 ppm
same,Activity range,[14],10 ppm
same,Activity range,[15],30 ppm
same,Activity range,[16],3 ppm
same,Activity range,[17],30 ppm
same,Activity range,[18],> 300 ppm
same,Activity range,[19],30 ppm
same,Activity range,[20],100 ppm
same,Activity range,[21],10 ppm
same,Activity range,[22],10 ppm
same,Activity range,[23],3 ppm
same,Activity range,[24],30 ppm
same,Activity range,[25],3 ppm
same,Activity range,[26],10 ppm
same,Activity range,[27],10 ppm
same,Activity range,[28],> 300 ppm
same,Activity range,[29],30 ppm
same,Activity range,[30],> 300 ppm
same,Activity range,[31],3 ppm
same,Activity range,[32],30 ppm
same,Activity range,[33],10 ppm
same,Activity range,[34],10 ppm
same,Activity range,[35],30 ppm
same,Activity range,[36],10 ppm
same,Activity range,[37],> 300 ppm
same,Activity range,[38],100 ppm
